Laboratory results published in ChEMBL document CHEMBL1201862, “PubChem BioAssay data set” (2004).
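96-well plates; 48 h exposure; 5 concentrations. Endpoints by linear interpolation between flanking doses. Not reached: highest tested concentration assigned. Abbreviation: GI50, concentration required for 50% inhibition of growth.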 Active and inactive are the calls of the source. Rule as the data show it: active = GI50 up to about 1.1 µM and inactive = higher.

Key:
Experiment in all cases: NCI-60 cell line screen, 48 h
SF-295 = test system: SF-295
EKVX = test system: EKVX
XF498 = test system: XF498
HL-60 = test system: HL-60
RPMI-8226 = test system: RPMI-8226
LXFL 529 = test system: LXFL 529
SF-268 = test system: SF-268
NCI-H226 = test system: NCI-H226
SNB-75 = test system: SNB-75
SK-MEL-28 = test system: SK-MEL-28
NCI-H522 = test system: NCI-H522
MOLT-4 = test system: MOLT-4
SF-539 = test system: SF-539
M19-MEL = test system: M19-MEL
OVCAR-3 = test system: OVCAR-3
SK-MEL-5 = test system: SK-MEL-5
DMS-273 = test system: DMS-273
SK-MEL-2 = test system: SK-MEL-2
U-251 = test system: U-251
HCT-116 = test system: HCT-116
DLD-1 = test system: DLD-1
786-0 = test system: 786-0
KM-20L2 = test system: KM-20L2
HCC 2998 = test system: HCC 2998
CCRF-CEM = test system: CCRF-CEM
OVCAR-8 = test system: OVCAR-8
M14 = test system: M14
Malme-3M = test system: Malme-3M
OVCAR-5 = test system: OVCAR-5
RXF 393 = test system: RXF 393
HT-29 = test system: HT-29
UACC-257 = test system: UACC-257
HOP-92 = test system: HOP-92
LOX IMVI = test system: LOX IMVI
KM12 = test system: KM12
SNB-78 = test system: SNB-78
TK-10 = test system: TK-10
A549 = test system: A549
IGROV-1 = test system: IGROV-1
HOP-62 = test system: HOP-62
UACC-62 = test system: UACC-62
K562 = test system: K562
DMS-114 = test system: DMS-114
NCI-H460 = test system: NCI-H460
SW-620 = test system: SW-620
NCI-H23 = test system: NCI-H23
COLO 205 = test system: COLO 205
UO-31 = test system: UO-31
SK-OV-3 = test system: SK-OV-3
SN12C = test system: SN12C
A498 = test system: A498
HCT-15 = test system: HCT-15
SR = test system: SR
CAKI-1 = test system: CAKI-1
OVCAR-4 = test system: OVCAR-4
ACHN = test system: ACHN
SNB-19 = test system: SNB-19
HOP-18 = test system: HOP-18

Measured: GI50

C/C(CC(=O)Nc1cccc(Cl)c1C)=N\NC(=O)c1ccncc1
inactive: SF-295 > 100 µM | EKVX > 100 µM | XF498 > 100 µM | HL-60 > 100 µM | RPMI-8226 > 100 µM | LXFL 529 > 100 µM | SF-268 > 100 µM | NCI-H226 > 100 µM | SNB-75 > 100 µM | SK-MEL-28 > 100 µM | NCI-H522 21.4 µM | MOLT-4 > 100 µM | SF-539 > 100 µM | M19-MEL > 100 µM | OVCAR-3 > 100 µM | SK-MEL-5 > 100 µM | DMS-273 > 100 µM | SK-MEL-2 > 100 µM | U-251 > 100 µM | HCT-116 > 100 µM | DLD-1 > 100 µM | 786-0 > 100 µM | KM-20L2 > 100 µM | HCC 2998 > 100 µM | CCRF-CEM > 100 µM | OVCAR-8 > 100 µM | M14 > 100 µM | Malme-3M > 100 µM | OVCAR-5 > 100 µM | RXF 393 29.1 µM | HT-29 > 100 µM | UACC-257 > 100 µM | HOP-92 > 100 µM | LOX IMVI > 100 µM | KM12 > 100 µM | SNB-78 > 100 µM | TK-10 > 100 µM | A549 > 100 µM | IGROV-1 > 100 µM | HOP-62 > 100 µM | UACC-62 > 100 µM | K562 > 100 µM | DMS-114 > 100 µM | NCI-H460 > 100 µM | SW-620 > 100 µM | NCI-H23 58.9 µM | COLO 205 > 100 µM | UO-31 > 100 µM | SK-OV-3 > 100 µM

O=C(/C=C1/Nc2ccc([N+](=O)[O-])cc2NC1O)c1cccc([N+](=O)[O-])c1 (stereo not given)
23.5 µM: HCT-15
inactive: SF-295 13.6 µM | EKVX > 100 µM | XF498 > 100 µM | HL-60 32.8 µM | LXFL 529 19.9 µM | SF-268 53.2 µM | NCI-H226 34.8 µM | SNB-75 46.3 µM | SK-MEL-28 39.8 µM | NCI-H522 18.7 µM | MOLT-4 64.4 µM | SF-539 20.7 µM | M19-MEL 58.3 µM | OVCAR-3 35.6 µM | SK-MEL-5 70.5 µM | DMS-273 16.3 µM | U-251 21 µM | HCT-116 26.2 µM | SN12C > 100 µM | DLD-1 17.3 µM | 786-0 14 µM | KM-20L2 25.4 µM | A498 > 100 µM | HCC 2998 53.5 µM | CCRF-CEM 14.5 µM | OVCAR-8 19.1 µM | SR > 100 µM | M14 21.5 µM | Malme-3M 38.4 µM | RXF 393 23.6 µM | HT-29 56.2 µM | CAKI-1 56.9 µM | UACC-257 82.4 µM | HOP-92 > 100 µM | LOX IMVI 22.2 µM | OVCAR-4 4.16 µM | SNB-78 > 100 µM | ACHN 66.5 µM | TK-10 35 µM | A549 58.7 µM | IGROV-1 > 100 µM | HOP-62 83.9 µM | UACC-62 81.7 µM | K562 30.3 µM | DMS-114 32.1 µM | NCI-H460 39.2 µM | SNB-19 > 100 µM | SW-620 72.1 µM | NCI-H23 36.6 µM | COLO 205 12.1 µM | UO-31 35.9 µM | SK-OV-3 20.3 µM

OC12CCCCCC1(N1CCOCC1)c1ccccc12 (stereo not given)
inactive: SF-295 > 100 µM | HL-60 > 100 µM | RPMI-8226 > 100 µM | LXFL 529 > 100 µM | SF-268 > 100 µM | NCI-H226 > 100 µM | SNB-75 > 100 µM | SK-MEL-28 > 100 µM | NCI-H522 > 100 µM | MOLT-4 > 100 µM | SF-539 > 100 µM | M19-MEL > 100 µM | OVCAR-3 > 100 µM | SK-MEL-5 > 100 µM | DMS-273 > 100 µM | SK-MEL-2 > 100 µM | U-251 > 100 µM | HCT-116 > 100 µM | SN12C > 100 µM | 786-0 > 100 µM | KM-20L2 > 100 µM | A498 > 100 µM | HCC 2998 > 100 µM | CCRF-CEM > 100 µM | OVCAR-8 > 100 µM | M14 > 100 µM | Malme-3M > 100 µM | OVCAR-5 > 100 µM | RXF 393 > 100 µM | HT-29 > 100 µM | CAKI-1 > 100 µM | UACC-257 > 100 µM | HOP-18 > 100 µM | LOX IMVI > 100 µM | OVCAR-4 > 100 µM | KM12 > 100 µM | SNB-78 > 100 µM | ACHN > 100 µM | TK-10 > 100 µM | A549 > 100 µM | IGROV-1 > 100 µM | HOP-62 > 100 µM | UACC-62 > 100 µM | K562 > 100 µM | DMS-114 > 100 µM | NCI-H460 > 100 µM | SNB-19 > 100 µM | SW-620 > 100 µM | NCI-H23 > 100 µM | COLO 205 > 100 µM | UO-31 > 100 µM | SK-OV-3 > 100 µM
> 100 µM: HCT-15
